{
  "source": "patent US5140037A",
  "about": "“Treatment of central nervous system disorders with imidazole angiotensin-II receptor antagonists” (E. I. du Pont de Nemours and Company, priority 1990, dated 1992)",
  "key": {"[1]": {"system": "ACh in the striatum and hypothalamus", "settings": "acute or repeated administration; cited from earlier work"}, "[2]": {"system": "scopolamine-induced amnesia", "settings": "three times per day, 1, 3 and 10 mg/kg PO; cited from earlier work"}, "uphill avoidance": {"system": "uphill avoidance", "settings": "acute, 30 mg/kg PO; cited from earlier work"}, "[3]": {"system": "scopolamine-induced impairment of eight arm radial maze performance", "settings": "3 mg/kg IP; cited from earlier work"}, "[4]": {"system": "passive avoidance response", "settings": "injected into dorsal neostriatum; cited from earlier work"}, "AII-1 receptor": {"biological_target": "AII-1 receptor", "assay": "AII-1 site binding: displacement of [125I]AII in adrenal cortex microsomes in presence of 10^-5 M EXP655 (Table 1)", "set-up": "species or system rat", "settings": "10^-5 M EXP655 present, [125I]AII displacement"}, "[5]": {"system": "potassium-stimulated release of [3H]ACh", "settings": "rat entorhinal cortex, cited from earlier work"}, "avoidance learning": {"system": "avoidance learning", "settings": "cited from earlier work"}, "[6]": {"system": "renin-induced amnesia (passive avoidance)", "assay": "Renin-disrupted passive avoidance retention", "type": "in vivo, male Sprague-Dawley rats", "settings": "for effect on renin-induced amnesia: IVT, co-administered with renin", "protocol": "RENIN-DISRUPTED PASSIVE AVOIDANCE RETENTION\nExperimentally naive male Sprague-Dawley rats 100 to 125 days oil (Charles River Breeding Laboratories, Kingston, N.Y.), weighing between 175 to 200 gm were used. The animals were housed four per cage (45.0L×20.0H×26.0W cm) with free access to food and water. They were maintained on a 12 h light/dark cycle (lights on 0600 h) and at a room temperature of 22±1° C. with relative humidity of 50±10%.\nThe experimental sessions were conducted in a two-compartment passive avoidance box. One compartment, made of clear plastic with a perforated clear plastic floor, measured 21(L)×24.5(H)×17(W) cm and was illuminated with a 60 watt incandescent light bulb placed 36 cm above the floor. The other compartment, made of black plastic, measured 30.5 (L)×20.3 (H)×21.5 (W) cm with a floor made of 4 mm stainless steel rods spaced 1.2 cm apart. A grid floor shocker (Coulbourn Instruments) was connected to the steel rods and provided scrambled footshock. The two compartments were separated by a solenoid-operated slide door (Lafayette Instrument Co., Lafayette, Ind.). An electronic counter (Coulbourn Instruments), triggered by the opening or closing of the slide door, recorded acquisition and retention latencies (latencies were defined as the time it took an animal to enter the dark compartment).\nPassive avoidance training began by placing the rat into the clear compartment of the two-compartment passive avoidance box. Following a 10 sec delay, the slide door to the dark compartment was raised. Once the rat moved completely into the dark compartment (all four paws on the shock grid floor) the slide door was lowered, and after a 10 sec. delay, a 1.0 mA shock was applied to the grid floor for three sec. A second three s shock was delivered after an additional 10 sec delay. The rats were immediately removed from the dark compartment and returned to their home cage. A retention test was given 24 h later. It proceeded in the same manner as the training session except that no shock was applied to the grid floor when the rats were provided access to the dark compartment for a maximum of 300 sec.\nAll drugs were administered IVT 60 minutes prior to acquisition training in a volume of 5 μl. Doses are expressed as the free base weight of each compound."}, "light/dark habituation": {"system": "light/dark habituation", "settings": "cited from earlier work"}, "AII-2 receptor": {"biological_target": "T1, AII-2 receptor (Rattus norvegicus, UniProt P35351)", "T1 sequence (P35351 1-363)": "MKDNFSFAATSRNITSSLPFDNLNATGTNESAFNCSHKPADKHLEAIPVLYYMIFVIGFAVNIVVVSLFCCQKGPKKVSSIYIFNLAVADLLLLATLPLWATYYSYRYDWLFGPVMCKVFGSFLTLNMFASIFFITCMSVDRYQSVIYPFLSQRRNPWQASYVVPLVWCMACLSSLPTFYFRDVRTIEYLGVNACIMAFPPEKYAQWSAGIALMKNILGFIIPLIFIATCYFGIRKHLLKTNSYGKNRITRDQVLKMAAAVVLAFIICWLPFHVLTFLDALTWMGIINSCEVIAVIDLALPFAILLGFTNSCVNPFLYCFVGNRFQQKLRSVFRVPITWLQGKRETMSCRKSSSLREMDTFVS", "assay": "biochemical", "procedure": "IC50 was determined by displacement of [^125 I]AII from the receptor by the indicated compound."}, "AII-1 receptor subtype": {"system": "AII-1 receptor subtype", "assay": "Block of AII receptor subtypes, AII-1 (statement in words)", "type": "binding"}, "AII-2 receptor subtype": {"system": "AII-2 receptor subtype", "assay": "Block of AII receptor subtypes, AII-2 (statement in words)", "type": "binding"}, "[7]": {"system": "memory of previously learned tasks", "settings": "in vivo; cited from earlier work"}, "[8]": {"system": "AII binding sites in the brain", "assay": "Binding of AII antagonists to sections of brain slices"}, "[9]": {"system": "AII in cerebrospinal fluid (CSF)", "settings": "cited from earlier work"}},
  "note": "Entries after “also recorded” stand apart in the source; their conditions may differ.",
  "data": [
    {"molecule": "CCOC(=O)C(CCc1ccccc1)NC(C)C(=O)N1CC2(CC3CCC2CC3)CC1C(=O)O", "note": "(stereo not drawn) [Hoe 288]", "values": [
      {"measurement": "ACh in the striatum and hypothalamus", "setting": "[1]", "value": "significant decrease in ACh in the striatum and hypothalamus"},
      {"measurement": "scopolamine-induced PA amnesia", "setting": "[2]", "value": "partially reversed the amnesia"},
      {"measurement": "uphill avoidance performance during retention testing", "setting": "uphill avoidance", "value": "improved performance during retention testing"},
      {"measurement": "effects of muscarinic receptor blockade on radial maze performance", "setting": "[3]", "value": "partially antagonized the effects of muscarinic receptor blockade"}
    ]},
    {"molecule": "AII: Angiotensin II (AII), a circulating hormone, now thought to act as a neuropeptide in the central nervous system (DRVYIHPF; Angiotensin-2; UniProt P01019 25-32, looked up)", "values": [
      {"measurement": "retention of passive avoidance response", "setting": "[4]", "value": "showed a disruption in retention of a PA response"},
      {"measurement": "IC50", "setting": "AII-1 receptor", "value": 1.5, "unit": "nM"},
      {"measurement": "basal ACh levels", "setting": "[5]", "value": "without effects on basal levels"},
      {"measurement": "potassium-stimulated release of ACh", "setting": "[5]", "value": "reduced potassium-stimulated release of ACh"}
    ]},
    {"molecule": "C[C@H](CS)C(=O)N1CCC[C@H]1C(=O)O", "note": "[captopril]", "values": [
      {"measurement": "renin-induced avoidance disruption", "setting": "avoidance learning; captopril IVT prior to renin", "value": "prevented the renin-induced avoidance disruption"},
      {"measurement": "effect of captopril on renin-induced amnesia", "setting": "[6]; IVT captopril, applicant's laboratory", "value": "renin-induced amnesia can be prevented"},
      {"measurement": "scopolamine-induced disruption of light/dark habituation performance", "setting": "light/dark habituation; daily treatment", "value": "prevented"},
      {"measurement": "rate of acquisition of light/dark habituation performance", "setting": "light/dark habituation; subchronic treatment", "value": "increased the rate of acquisition of light/dark habituation performance"}
    ]},
    {"molecule": "CNCC(=O)N[C@@H](CCCN=C(N)N)C(=O)N[C@H](C(=O)N[C@@H](Cc1ccc(O)cc1)C(=O)N[C@H](C(=O)N[C@@H](Cc1cnc[nH]1)C(=O)N1CCC[C@H]1C(=O)N[C@@H](C)C(=O)O)C(C)C)C(C)C", "note": "[Saralasin]", "values": [
      {"measurement": "IC50", "setting": "AII-2 receptor", "value": 0.3, "unit": "nM"},
      {"measurement": "IC50", "setting": "AII-1 receptor", "value": 0.7, "unit": "nM"}
    ]},
    {"molecule": "CCCc1nc(C(F)(F)F)c(CO)n1Cc1ccc(-c2ccccc2-c2nnn[nH]2)cc1", "note": "[Compound D, 2-n-propyl-5-hydroxymethyl-1-[(2'-(1H-tetrazol-5-yl)biphenyl-4-yl)methyl]-4-trifluoromethylimidazole]", "values": [
      {"measurement": "effect on renin-induced amnesia", "setting": "[6]", "value": "protected against the amnesia"},
      {"measurement": "AII-1 receptor block / affinity", "setting": "AII-1 receptor subtype", "value": "AII-1 receptor antagonists"}
    ]},
    {"molecule": "NC(=O)[C@@H]1CCCN1C(=O)[C@H](Cc1cnc[nH]1)NC(=O)[C@@H]1CCC(=O)N1", "note": "[thyrotropin releasing hormone]", "values": [
      {"measurement": "retention of passive avoidance response", "setting": "[4]", "value": "no effect"}
    ]},
    {"molecule": "CCCc1nc(C(F)(F)F)c(C(=O)O)n1Cc1ccc(-c2ccccc2-c2nnn[nH]2)cc1", "note": "[Compound C, 2-n-propyl-1-[(2'-(1H -tetrazol-5-yl)biphenyl-4-yl)methyl]-4-trifluoromethylimidazole-5-carboxylic acid]", "values": [
      {"measurement": "effect on renin-induced amnesia", "setting": "[6]", "value": "protected against the amnesia"},
      {"measurement": "AII-1 receptor block / affinity", "setting": "AII-1 receptor subtype", "value": "AII-1 receptor antagonists"}
    ]},
    {"molecule": "CCCc1nc(-c2ccccc2)c(C=O)n1Cc1ccc(-c2ccccc2C(=O)O)cc1", "note": "[Compound B, 1-[(2'-carboxybiphenyl-4-yl)methyl]-4-phenyl-2-propylimidazole-5-carboxaldehyde]", "values": [
      {"measurement": "IC50", "setting": "AII-2 receptor", "value": 4300, "unit": "nM"},
      {"measurement": "AII-2 receptor block / affinity", "setting": "AII-2 receptor subtype", "value": "show affinity for both AII-1 and AII-2 receptors"},
      {"measurement": "IC50", "setting": "AII-1 receptor", "value": 290, "unit": "nM"},
      {"measurement": "AII-1 receptor block / affinity", "setting": "AII-1 receptor subtype", "value": "show affinity for both AII-1 and AII-2 receptors"}
    ]},
    {"molecule": "lysine-8-vasopressin", "values": [
      {"measurement": "retention of passive avoidance response", "setting": "[4]", "value": "no effect"}
    ]},
    {"molecule": "CCCc1nc(-c2ccccc2)c(C=O)n1Cc1ccc(-c2ccccc2-c2nnn[nH]2)cc1", "note": "[Compound A, 1-[(2'-(1H tetrazol-5-yl)biphenyl-4-yl)methyl]-4-phenyl-2-propylimidazole-5-carboxaldehyde]", "values": [
      {"measurement": "IC50", "setting": "AII-2 receptor", "value": 2400, "unit": "nM"},
      {"measurement": "AII-2 receptor block / affinity", "setting": "AII-2 receptor subtype", "value": "show affinity for both AII-1 and AII-2 receptors"},
      {"measurement": "IC50", "setting": "AII-1 receptor", "value": 22, "unit": "nM"},
      {"measurement": "AII-1 receptor block / affinity", "setting": "AII-1 receptor subtype", "value": "show affinity for both AII-1 and AII-2 receptors"}
    ]},
    {"molecule": "NCCCC[C@H](OP(=O)(O)CCCCc1ccccc1)C(=O)N1CCC[C@H]1C(=O)O", "note": "[SQ 29852]", "values": [
      {"measurement": "anticholinergic effect on performance", "setting": "[7]", "value": "ameliorate, at least in part, an anticholinergic effect on performance"},
      {"measurement": "effects on memory of previously learned tasks", "setting": "[7]", "value": "protective effects on memory of previously learned tasks"}
    ]},
    {"molecule": "[1-sarcosine, 8-threonine]angiotensin II", "values": [
      {"measurement": "antagonism of AII effect on ACh release", "setting": "[5]; with AII", "value": "antagonized"}
    ]},
    {"molecule": "Cc1cc(Cn2cnc3c2CC(C(=O)O)N(C(=O)C(c2ccccc2)c2ccccc2)C3)ccc1N", "note": "(stereo not drawn) [EXP655, 1-(4-amino-3-methylphenyl)methyl-5-diphenylacetyl-4,5,6,7-tetrahydro-1H-imidazo[4,5-c]pyridine-6-carboxylic acid]", "values": [
      {"measurement": "effect on renin-induced amnesia", "setting": "[6]", "value": "much less effective in preventing the amnesia"},
      {"measurement": "sensitivity of AII binding sites in the brain", "setting": "[8]", "value": "the majority of binding sites in the brain are DTT-insensitive and EXP655-sensitive"},
      {"measurement": "IC50", "setting": "AII-1 receptor", "value": 300000, "unit": "nM"}
    ]},
    {"molecule": "renin: Renin (Sigma Chemicals), a stimulator of endogenous AII biosynthesis (protein, UniProt P00797 67-406, looked up) Renin: LTLGNTTSSVILTNYMDTQYYGEIGIGTPPQTFKVVFDTGSSNVWVPSSKCSRLYTACVYHKLFDASDSSSYKHNGTELTLRYSTGTVSGFLSQDIITVGGITVTQMFGEVTEMPALPFMLAEFDGVVGMGFIEQAIGRVTPIFDNIISQGVLKEDVFSFYYNRDSENSQSLGGQIVLGGSDPQHYEGNFHYINLIKTGVWQIQMKGVSVGSSTLLCEDGCLALVDTGASYISGSTSSIEKLMEALGAKKRLFDYVVKCNEGPTLPDISFHLGGKEYTLTSADYVFQESYSSKKLCTLAIHAMDIPPPTGPTWALGATFIRKFYTEFDRRNNRIGFALAR", "values": [
      {"measurement": "avoidance learning", "setting": "avoidance learning; renin IVT", "value": "disruption of avoidance learning"},
      {"measurement": "memory effect of renin", "setting": "[6]; renin IVT", "value": "produces a reliable memory deficit; also recorded: produces a dose-related amnesia in a PA task"},
      {"measurement": "Median Retention Latency", "setting": "[6]; renin alone 5.0 μg/5 μL IVT", "value": 17, "unit": "s"},
      {"measurement": "AII in CSF after renin", "setting": "[9]; renin IVT", "value": "about 5,000 fmol per mL"},
      {"measurement": "AII in CSF before renin", "setting": "[9]; starting level", "value": 40, "unit": "fmol per mL"}
    ]}
  ]
}
